Experimental data published in patent US20100086931A1, “METHOD FOR ASSAYING ACTION OF ANTITUMOR AGENT USING DECREASE IN GENE EXPRESSION LEVEL AS INDEX” (Eisai R&D Management Co., Ltd., priority 2007, published 2010).

System: human colon carcinoma cell strain WiDr
Experiment: Microarray analysis (Human Genome U133 plus 2.0 array) of mRNA expression in WiDr cells treated with compound A
Type: cell-based
Conditions: 14 nM, 6 h, ratio to control
Protocol: Microarray analysis (Human Genome U133 plus 2.0 array: Affymetrix) was carried out using RNA purified from human colon carcinoma cell strain WiDr treated with 2.8 nM and 14 nM of (8E,12E,14E)-7-((4-Cycloheptylpiperazin-1-yl)carbonyl)oxy-3,6,16,21-tetrahydroxy-6,10,12,16,20-pentamethyl-18,19-epoxytricosa-8,12,14-trien-11-olide (hereinafter also referred to as “compound A”) for six hours.
WiDr cells were first suspended in RPMI1640 medium (containing 10% FBS, penicillin, and streptomycin) and seeded in a 10 cm dish (2×10^6 cells/dish). After an overnight culture in an incubator with 5% carbon dioxide gas at 37° C., the medium was changed with medium containing 2.8 nM and 14 nM of compound A or containing vehicle alone. After cultured additional six hours, TRI reagent (SIGMA) was added to cells, and the cells were harvested. RNA was purified in accordance with the protocol of TRI reagent, followed by further purification with RNeasy (QIAGEN). Absorbance at 260 nm was measured to quantify an amount of RNA.
Subsequently, single stranded cDNA synthesis, double stranded cDNA synthesis, biotin-labeled cRNA synthesis, and cRNA fragmentation in order were carried out from 5-10 μg (WiDr 10 μg, PBMC 5 μg) of total RNA from the control cells and the treated cells, by using One-Cycle Target Labeling and Control Reagents (Affymetrix). cRNA probe was used for hybridization with Human Genome U133 Plus 2.0 Array (Affymetrix). The array was then washed and stained, and luminescence intensity was measured by a scanner.
The RMA method was applied to 33 of .cel files obtained in the microarray experiment and log signal intensity at a gene level normalized with log signal intensity at a probe level was obtained. By subtracting the mean between control 1 and control 3 from the mean between log signal intensity 1 and log signal intensity 3 for each case, the log signal intensity was converted into a log signal ratio to the control. A t-test was conducted between each log signal intensity and control, and candidate genes were narrowed down in the basis of a p-value, a log signal ratio, and a signal value. Specifically, genes showing that the P value was 5% or less; the expression level in the untreated (control) is 100 or more by signal value; and the expression level when treated with both 2.8 nM and 14 nM of compound A is, compared to the control, 25% or less, were picked out. The software used is R2.2.1 (http://www.r-project.org/), affy package 1.8.1 (http://www.bioconductor.org).
Genes showing that, by the treatment with compound A, the P value was 5% or less; the expression level in the untreated (control) is 100 or more by signal value; and the expression level when treated with both 2.8 nM and 14 nM of compound A is, compared to the control, 25% or less, and results thereof were shown in Table 1. Probe ID used in Table 1 represents Human Genome U133 Plus 2.0 Array Probeset ID. In Table 1, for each gene evaluated, gene name (Gene Name), abbreviated name (Gene Symbol), accession number (Accession), alias name (Synonym), Probe set number in Human Genome U133 Plus 2.0 Array (Human Genome U133 Plus 2.0 Array Probeset ID), the expression level upon the six-hour treatment with 2.8 nM of E7107 (2.8 nM (6 h)), and the expression level upon the six-hour treatment with 14 nM of E7107 (14 nM (6 h)) were respectively shown.

CCC(O)C(C)C1OC1CC(C)(O)/C=C/C=C(\C)C1OC(=O)CC(O)CCC(C)(O)C(OC(=O)N2CCN(C3CCCCCC3)CC2)/C=C/C1C (stereo not drawn) [E7107, (8E,12E,14E)-7-((4-Cycloheptylpiperazin-1-yl)carbonyl)oxy-3,6,16,21-tetrahydroxy-6,10,12,16,20-pentamethyl-18,19-epoxytricosa-8,12,14-trien-11-olide]
0.10: ATP2B1 mRNA expression level (212930_at) | FRY mRNA expression level (204072_s_at) | MLL2 mRNA expression level (227527_at) | PHF20L1 mRNA expression level (226942_at) | POLR3E mRNA expression level (222490_at) | RAD54B mRNA expression level (219494_at) | Transcribed locus, moderately similar to XP_518244.1 mRNA expression level (235046_at)
0.17: ANGEL2 mRNA expression level (221825_at) | ATP2A2 mRNA expression level (212361_s_at) | C12orf32 mRNA expression level (225837_at) | CCDC14 mRNA expression level (225017_at) | CDNA FLJ34214 fis, clone FCBBF3021807 mRNA expression level (227087_at) | NCOA5 mRNA expression level (225145_at) | PMS1 mRNA expression level (213677_s_at) | Transcribed locus mRNA expression level (235609_at) | WBP4 mRNA expression level (203598_s_at)
0.06: E2F7 mRNA expression level (228033_at) | FKSG44 mRNA expression level (227964_at) | MCM10 mRNA expression level (220651_s_at) | PLEKHA5 mRNA expression level (220952_s_at) | SFXN1 mRNA expression level (230069_at) | UNC50 mRNA expression level (203583_at)
0.23: C7orf49 mRNA expression level (220949_s_at) | TRIP4 mRNA expression level (203732_at)
0.05: BPTF mRNA expression level (232909_s_at) | C5orf28 mRNA expression level (219029_at) | CCNE2 mRNA expression level (205034_at) | EHBP1 mRNA expression level (212653_s_at) | FBXL5 mRNA expression level (209004_s_at) | ZMIZ1 mRNA expression level (212124_at)
0.21: C17orf80 mRNA expression level (223351_at) | FANCL mRNA expression level (218397_at) | HDAC4 mRNA expression level (204225_at) | NIN mRNA expression level (225921_at) | NUPL2 mRNA expression level (204003_s_at) | TRIM31 mRNA expression level (210159_s_at)
0.18: FGF19 mRNA expression level (223761_at) | GRHL1 mRNA expression level (222830_at) | METTL4 mRNA expression level (219698_s_at) | PCGF1 mRNA expression level (210023_s_at) | SLC17A5 mRNA expression level (223441_at) | mRNA expression level, probeset 228106_at (gene name not given)
0.12: ARMC8 mRNA expression level (203486_s_at) | CLIP1 mRNA expression level (201975_at) | Full-length cDNA clone CS0DL007YI24 of B cells (Ramos cell line) mRNA expression level (226648_at) | KIF2C mRNA expression level (211519_s_at) | NUPL1 mRNA expression level (223984_s_at) | ORC5L mRNA expression level (204957_at) | RBBP6 mRNA expression level (212783_at) | REPS1 mRNA expression level (224366_s_at) | Transcribed locus, strongly similar to NP_002194.1 integrin alpha 2 precursor mRNA expression level (227314_at) | Transcribed locus, strongly similar to NP_689873.1 mRNA expression level (228638_at) | ZNF518 mRNA expression level (204291_at)
0.08: CDC6 mRNA expression level (203967_at) | PAXIP1 mRNA expression level (212825_at) | SHPRH mRNA expression level (226366_at) | WDR67 mRNA expression level (214061_at)
0.25: FLJ20628 mRNA expression level (221229_s_at) | SLC37A1 mRNA expression level (218928_s_at) | ZCCHC6 mRNA expression level (220933_s_at)
0.24: MYOHD1 mRNA expression level (225947_at) | SMUG1 mRNA expression level (218685_s_at) | SYTL2 mRNA expression level (232914_s_at)
0.20: ADPRHL2 mRNA expression level (223097_at) | ELL3 mRNA expression level (219518_s_at) | INTS7 mRNA expression level (222250_s_at) | NPC1 mRNA expression level (202679_at)
0.07: DAPK1 mRNA expression level (203139_at) | EVI1 mRNA expression level (226420_at) | LOC51315 mRNA expression level (218303_x_at) | PPM1B mRNA expression level (209296_at) | RIF1 mRNA expression level (226821_at) | TNS3 mRNA expression level (217853_at)
0.04: C7orf23 mRNA expression level (204215_at) | RFC4 mRNA expression level (204023_at) | ZC3HAV1L mRNA expression level (228280_at)
0.22: ERCC3 mRNA expression level (202176_at) | FAM86C mRNA expression level (65585_at) | MKRN1 mRNA expression level (201285_at) | PIK3C3 mRNA expression level (204297_at) | RPS6KC1 mRNA expression level (218909_at) | SLC25A19 mRNA expression level (223222_at) | TMEM177 mRNA expression level (218897_at) | Transcribed locus mRNA expression level (230177_at)
0.13: CARD10 mRNA expression level (210026_s_at) | CDC7 mRNA expression level (204510_at) | NR2C1 mRNA expression level (204791_at) | RBM17 mRNA expression level (224780_at) | Transcribed locus mRNA expression level (230098_at)
0.09: C20orf112 mRNA expression level (225224_at) | CLDND1 mRNA expression level (208925_at) | JAGN1 mRNA expression level (223104_at) | JUB mRNA expression level (225806_at) | KIAA0859 mRNA expression level (212405_s_at) | KIF21A mRNA expression level (226003_at) | POLD3 mRNA expression level (212836_at) | TAF4 mRNA expression level (213090_s_at) | TTC4 mRNA expression level (46167_at)
0.14: C1orf79 mRNA expression level (223774_at) | CASC5 mRNA expression level (228323_at) | IXL mRNA expression level (225708_at) | MND1 mRNA expression level (223700_at) | PPWD1 mRNA expression level (213483_at) | SMEK2 mRNA expression level (226230_at) | STAMBPL1 mRNA expression level (227606_s_at) | STXBP3 mRNA expression level (203310_at)
0.03: IREB2 mRNA expression level (225892_at)
0.19: C1orf63 mRNA expression level (209006_s_at) | C1orf82 mRNA expression level (222893_s_at) | C15orf40 mRNA expression level (1552310_at) | KIAA0323 mRNA expression level (212355_at) | KIN mRNA expression level (205664_at) | METTL3 mRNA expression level (209265_s_at) | mRNA expression level, probeset 235436_at (gene name not given)
0.16: KCNE3 mRNA expression level (227647_at) | LOC124512 mRNA expression level (225808_at) | WDR26 mRNA expression level (218107_at)
0.11: FCHO2 mRNA expression level (228220_at) | KLHL12 mRNA expression level (225068_at) | LIPG mRNA expression level (219181_at) | MASTL mRNA expression level (228468_at) | RBMS1 mRNA expression level (209868_s_at) | TSEN2 mRNA expression level (219581_at) | TUBGCP3 mRNA expression level (203690_at)
0.15: ATP6V0A2 mRNA expression level (205704_s_at) | C6orf136 mRNA expression level (227455_at) | C7orf36 mRNA expression level (223433_at) | DNAJC16 mRNA expression level (212908_at) | KIAA0776 mRNA expression level (212633_at) | NOC3L mRNA expression level (218889_at) | PHACTR4 mRNA expression level (226823_at) | ZKSCAN1 mRNA expression level (214670_at)
